Results published in publication PMC5469811, “Identification of GXXXXG motif in Chrysophsin-1 and its implication in the design of analogs with cell-selective antimicrobial and anti-endotoxin activities” (Scientific Reports, 2017).
Values after ≈ are worked out from the molar mass of the structure shown. Where two headings read alike, the source gives them in different places. Blank lines part the entries; values can stand above or below the molecule they belong to. Residues, ends and D or L forms follow the SMILES beside them.

Legend:
[1] = system: Sporothrix schenckii (Patient isolates); assay: microbe, parasite or virus in culture; format: cell-based; conditions: read-out: Minimum inhibitory concentration (MIC)
[2] = system: Candida parapsilosis (ATCC 22019); assay: microbe, parasite or virus in culture; format: cell-based; conditions: read-out: Minimum inhibitory concentration (MIC)
Experimental: (§1) The anti- fungal activity of peptides was performed according to the standard micro broth dilution technique as per NCCLS guidelines. These plates were incubated in a moist chamber at 35 °C, and an absorbance at 492 nm was recorded on a VersaMax microplate reader after 48 h for C. albicans ATCC 10231 and C. parapsilosis ATCC 22019 and 72 h for C. neoformans.

Cryptococcus neoformans = assay: microbe, parasite or virus in culture; format: cell-based; conditions: 72 h, read-out: Minimum inhibitory concentration (MIC)
Experimental: as §1

[3] = system: Candida albicans (ATCC 10231); assay: microbe, parasite or virus in culture; format: cell-based; conditions: read-out: Minimum inhibitory concentration (MIC)
Experimental: as §1

[4] = system: Escherichia coli (ATCC 25922); assay: microbe, parasite or virus in culture; format: cell-based; conditions: read-out: Minimum inhibitory concentration (MIC)
Experimental: (§2) Antibacterial assay against various Gram-positive and Gram-negative strains of bacteria was performed by the serial two-fold dilution method according to the previously reported procedure, [36]. The antibacterial assays were repeated thrice and the averages of these MIC values were reported.

[5] = system: Bacillus subtilis (ATCC 6633); assay: microbe, parasite or virus in culture; format: cell-based; conditions: read-out: Minimum inhibitory concentration (MIC)
Experimental: as §2

[6] = system: Staphylococcus aureus (ATCC 700699 MRSA); assay: microbe, parasite or virus in culture; format: cell-based; conditions: read-out: Minimum inhibitory concentration (MIC)
Experimental: as §2

[7] = system: Staphylococcus aureus (ATCC 29213); assay: microbe, parasite or virus in culture; format: cell-based; conditions: read-out: Minimum inhibitory concentration (MIC)
Experimental: as §2

[8] = system: Staphylococcus aureus (ATCC 25923); assay: microbe, parasite or virus in culture; format: cell-based; conditions: read-out: Minimum inhibitory concentration (MIC)
Experimental: as §2

[9] = system: Klebsiella pneumoniae (ATCC 27736); assay: microbe, parasite or virus in culture; format: cell-based; conditions: read-out: Minimum inhibitory concentration (MIC)
Experimental: as §2

[10] = system: Staphylococcus aureus (BAA-44)MDR; assay: microbe, parasite or virus in culture; format: cell-based; conditions: BAA44; Staphylococcus aureus (BAA-44) MDR; averages of three repeats; read-out: Minimum inhibitory concentration (MIC)
Experimental: as §2

[11] = system: Staphylococcus aureus (ATCC 700698 MRSA); assay: microbe, parasite or virus in culture; format: cell-based; conditions: read-out: Minimum inhibitory concentration (MIC)
Experimental: as §2

[12] = system: Pseudomonas aeruginosa (ATCC BAA-427); assay: microbe, parasite or virus in culture; format: cell-based; conditions: read-out: Minimum inhibitory concentration (MIC)
Experimental: as §2

[13] = system: Staphylococcus aureus (ATCC 33592) Methicillin resistant Genatmicin resistant; assay: microbe, parasite or virus in culture; format: cell-based; conditions: read-out: Minimum inhibitory concentration (MIC)
Experimental: as §2

[14] = system: Escherichia coli (ATCC 9637); assay: microbe, parasite or virus in culture; format: cell-based; conditions: read-out: Minimum inhibitory concentration (MIC)
Experimental: as §2

S. aureus (ATCC 25923) = format: cell-based, Staphylococcus aureus; conditions: ATCC 25923, 1 h
Experimental: (§3) E. coli ATCC25922 was grown to 10^6 CFU/ml in fresh MH broth with various divalent and monovalent salts at their physiological concentrations. Serial dilutions of chrysophsin-1 and its variants prepared with the same MH broth were added to the E. coli ATCC 25922 suspensions. The bacteria were incubated at 37 °C in a shaking incubator for 18 h and the MIC values of individual peptides against E. coli ATCC 25922 were determined. Thermal tolerance of Chrysophsin-1 and its variants was checked by incubating the peptides at 4 °C, 60 °C and 90 °C for 1 h prior to MIC determination. The antibacterial activity in presence of serum was carried out by adding a final concentration of 10% fetal bovine serum in the assay diluents containing 0.4% BSA, 0.02% glacial acetic acid. The subsequent steps in both the experiments were consistent with the MIC determination method.

E. coli (ATCC 25922) = format: cell-based, Escherichia coli; conditions: ATCC 25922, 1 h
Experimental: as §3

E. coli ATCC 25922 [15] = format: cell-based, Escherichia coli; conditions: ATCC 25922, 18 h
Experimental: as §3

E. coli ATCC 25922 [16] = assay: Synergy with conventional antibiotics, checkerboard titration; format: cell-based, Escherichia coli
Experimental: The checkerboard titration method was followed to check the synergy of peptides with other antibiotics. First, 2-fold serial dilutions of the antibiotics and antimicrobial peptides were prepared. Subsequently, 50 μl each of different concentrations of antibiotics and of antimicrobial peptides was mixed and added into 100 μl of log phase bacteria culture in a 96-well plate. The plates were then incubated at 37 °C for 24 h. The fractional inhibitory concentration (FIC) index (FICI) was calculated as follows[39]: FICI=(MICofdrugAincombination)/(MICofdrugAalone)+(MICofdrugBincombination)/(MICofdrugB): FICI < 0.5 is considered to indicate synergy; 0.5 < FICI < 1.0 is considered additive; 1.0 < FICI < 4.0 is considered indifferent; and FICI > 4.0 is considered antagonism.

[17] = ATCC25922, Escherichia coli (ATCC 25922), averages of three repeats
[18] = ATCC6633, Bacillus subtilis (ATCC 6633), averages of three repeats
[19] = Staphylococcus aureus (ATCC 700699 MRSA), averages of three repeats
[20] = ATCC29213, Staphylococcus aureus (ATCC 29213), averages of three repeats
[21] = ATCC25923, Staphylococcus aureus (ATCC 25923), averages of three repeats
[22] = ATCC27736, Klebsiella pneumoniae (ATCC 27736), averages of three repeats
[23] = Staphylococcus aureus (ATCC 700698 MRSA), averages of three repeats
[24] = ATCCBAA427, Pseudomonas aeruginosa (ATCC BAA-427), averages of three repeats
[25] = ATCC33592, Staphylococcus aureus (ATCC 33592), methicillin and gentamicin resistant, averages of three repeats
[26] = ATCC9637, Escherichia coli (ATCC 9637), averages of three repeats

- MIC ([1]; Sporothrix schenckii (patient isolates), NCCLS micro broth dilution, 35 °C): 6.53 µM (≈ 2 µg/mL)
- MIC ([2]; ATCC22019, Candida parapsilosis (ATCC 22019), NCCLS micro broth dilution, 35 °C, 48 h, absorbance 492 nm): 6.53 µM (≈ 2 µg/mL)
- MIC (Cryptococcus neoformans; Cryptococcus neoformans, NCCLS micro broth dilution, 35 °C, absorbance 492 nm): 6.53 µM (≈ 2 µg/mL)
- MIC ([3]; ATCC10231, Candida albicans (ATCC 10231), NCCLS micro broth dilution, 35 °C, 48 h, absorbance 492 nm): 3.26 µM (≈ 0.998 µg/mL)
SMILES: OC(Cn1cncn1)(Cn1cncn1)c1ccc(F)cc1F [Fluconazole, reference compound]

- MIC [4, 17]: 2.5 µM (≈ 1.19 µg/mL)
- MIC [5, 18]: 1.2 µM (≈ 0.573 µg/mL)
- MIC [6, 19]: > 86.8 µM
- MIC [7, 20]: 1.35 µM (≈ 0.645 µg/mL)
- MIC [8, 21]: 0.67 µM (≈ 0.32 µg/mL)
- MIC [9, 22]: 1.35 µM (≈ 0.645 µg/mL)
- MIC [10]: > 86.8 µM
- MIC [11, 23]: > 86.8 µM
- MIC [12, 24]: 1.35 µM (≈ 0.645 µg/mL)
- MIC [13, 25]: > 86.8 µM
- MIC [14, 26]: 5 µM (≈ 2.39 µg/mL)
SMILES: CNC(C)C1CCC(N)C(OC2C(N)CC(N)C(OC3OCC(C)(O)C(NC)C3O)C2O)O1 (centres unmarked) [Gentamicin, reference compound]

- MIC [4, 17]: 0.3 µM (≈ 0.0958 µg/mL)
- MIC [5, 18]: 1.2 µM (≈ 0.383 µg/mL)
- MIC [6, 19]: > 156 µM
- MIC [7, 20]: 2.44 µM (≈ 0.779 µg/mL)
- MIC [8, 21]: 1.22 µM (≈ 0.39 µg/mL)
- MIC [9, 22]: 0.15 µM (≈ 0.0479 µg/mL)
- MIC [10]: 39.1 µM (≈ 12.5 µg/mL)
- MIC [11, 23]: > 156 µM
- MIC [12, 24]: 1.22 µM (≈ 0.39 µg/mL)
- MIC [13, 25]: 1.22 µM (≈ 0.39 µg/mL)
- MIC [14, 26]: 0.15 µM (≈ 0.0479 µg/mL)
SMILES: CCn1cc(C(=O)O)c(=O)c2cc(F)c(N3CCNCC3)cc21 [Norfloxacin, reference compound]

- MIC ([1]; 48 h): 27.2 µM (≈ 79.7 µg/mL)
- Antibacterial activity (MIC) after incubating peptide at 4 °C (S. aureus (ATCC 25923)): 3 µM
- Antibacterial activity (MIC) after incubating peptide at 60 °C (S. aureus (ATCC 25923)): 33 µM
- Antibacterial activity (MIC) after incubating peptide at 90 °C (S. aureus (ATCC 25923)): 33 µM
- MIC ([2]; ATCC 22019, 48 h): 13.6 µM (≈ 39.9 µg/mL)
- MIC (Cryptococcus neoformans): 13.6 µM (≈ 39.9 µg/mL)
- MIC ([3]; ATCC 10231, 48 h): 13.6 µM (≈ 39.9 µg/mL)
- Antibacterial activity (MIC) after incubating peptide at 4 °C (E. coli (ATCC 25922)): 3 µM
- Antibacterial activity (MIC) after incubating peptide at 60 °C (E. coli (ATCC 25922)): 8.3 µM
- Antibacterial activity (MIC) after incubating peptide at 90 °C (E. coli (ATCC 25922)): 17.2 µM
- Antibacterial activity (MIC) in the presence of 10% FBS (E. coli ATCC 25922 [15]): 17.2 µM
- Antibacterial activity (MIC) in the presence of FeCl3 (E. coli ATCC 25922 [15]): 4.1 µM
- Antibacterial activity (MIC) in the presence of KCl (E. coli ATCC 25922 [15]): 4.3 µM
- Antibacterial activity (MIC) in the presence of MgCl2 (E. coli ATCC 25922 [15]): 8.6 µM
- Antibacterial activity (MIC) in the presence of NH4Cl (E. coli ATCC 25922 [15]): 4.3 µM
- Antibacterial activity (MIC) in the presence of NaCl (E. coli ATCC 25922 [15]): 4.3 µM
- MIC ([4]; ATCC 25922): 3 µM (≈ 8.79 µg/mL)
- MIC ([5]; ATCC 6633): 3 µM (≈ 8.79 µg/mL)
- MIC ([6]; ATCC 700699): 3 µM (≈ 8.79 µg/mL)
- MIC ([7]; ATCC 29213): 6.8 µM (≈ 19.9 µg/mL)
- MIC ([8]; ATCC 25923): 3 µM (≈ 8.79 µg/mL)
- MIC ([9]; ATCC 27736): 13.6 µM (≈ 39.9 µg/mL)
- MIC ([11]; ATCC 700698): 3 µM (≈ 8.79 µg/mL)
- MIC ([12]; ATCC BAA-427): 6.8 µM (≈ 19.9 µg/mL)
- MIC ([13]; ATCC 33592): 1.6 µM (≈ 4.69 µg/mL)
- MIC ([14]; ATCC 9637): 3 µM (≈ 8.79 µg/mL)
SMILES: CC[C@H](C)[C@H](NC(=O)[C@H](C)NC(=O)CNC(=O)[C@H](CCCCN)NC(=O)[C@@H](NC(=O)[C@H](CC(C)C)NC(=O)[C@H](Cc1c[nH]c2ccccc12)NC(=O)CNC(=O)[C@H](Cc1ccccc1)NC(=O)[C@@H](N)Cc1ccccc1)[C@@H](C)CC)C(=O)N[C@@H](Cc1c[nH]cn1)C(=O)N[C@@H](C)C(=O)NCC(=O)N[C@@H](CCCCN)C(=O)N[C@@H](C)C(=O)N[C@H](C(=O)N[C@@H](Cc1c[nH]cn1)C(=O)N1CCC[C@H]1C(=O)N[C@@H](CC(C)C)C(=O)N[C@H](C(=O)N[C@@H](Cc1c[nH]cn1)C(=O)N[C@@H](CCCNC(=N)N)C(=O)N[C@@H](CCCNC(=N)N)C(=O)N[C@@H](CCCNC(=N)N)C(=O)N[C@@H](Cc1c[nH]cn1)C(N)=O)[C@@H](C)CC)[C@@H](C)CC [Peptide G18P-Chr-1] (H-FFGWLIKGAIHAGKAIHPLIHRRRH-NH2)
- interaction of peptide with chloramphenicol (by FICI) (E. coli ATCC 25922 [16]): additivity
